# Laboratory results: patent US20030032003A1, “IN VIVO SELECTION” (priority 2000, published 2003)
# Columns and labels:
# wildtype C57BL/6J mice = assay: Acute toxicity of hygromycin B, approximate lethal dose; format: in vivo, mouse; conditions: for body weight, percentage of the body weight before the experiment / survival: wildtype, 10 days
# Description: (§1) The animals were kept in SPF conditions, supplied with standard diet and water ad libitum. The room was held at 22° C. with humidity 70% and 12 hours dark-light cycle. Hygromycin-B was purchased from Sigma. The compound was dissolved in sterile water before application and the solution was injected i.p.
# (§2) The approximate lethal dose of hygromycin B after single i.p. injections was determined according to Deichmann and LeBlanc (1943). […] Two sets of six month old male mice (22-28 g) were used for all acute toxicity experiments. […] Total volume injected was 0.5 ml. The health status and body weights of animals were monitored daily for 10 consecutive days. The lowest dose in the dose response curve at which one mouse died was considered as the approximate lethal dose. […] The animals were checked twice a day. The maximum theoretical time the animals could be dead before necropsy was performed was 12 hrs.
# (§3) The approximate lethal dose (Deichmann and LeBlanc 1943) of hygromycin B in transgenic hyg^R bearing as well as wildtype mice was determined as a measure of the acute toxicity. […] The first dose in the increasing sequence of doses at which the mice died was considered the approximate lethal dose. The health status of animals was monitored for ten consecutive days. Hyg^R transgenic and wildtype mice tolerated a single i.p. injection of hygromycin B without immediate toxic symptoms or distress. The approximate lethal dose of hygromycin B for wildtype mice was […] (Table 1). […] Lethal doses in both hyg^R expressing transgenic and wild type strains caused the same signs of decreased activity which progressed to lethargy and death. The body weight of animals after lethal doses decreased which was less severe at shorter survival duration after hygromycin treatment (Table 1).
# [1] = system: hyg^R transgenic mice C57BL/6J-TgN(pPWL512hyg)1Ems; assay: as above; format: in vivo, mouse; conditions: for body weight, percentage of the body weight before the experiment / survival: hyg^R, 10 days
# Description: as §1, §2, §3
# hyg^R mice [2] = assay: Biochemical analysis of serum after hygromycin B; format: in vivo, mouse; conditions: serum 48 hrs after treatment
# Description: (§4) Serum biochemistry parameters analyzed included blood urea nitrogen ([…]), aspartate amino transferase (AST) and alanine amino transferase (ALT). The analyses were performed at Tufts University Veterinary Medical Diagnosis Laboratory with the chemical analyzer Hitachi 747. Blood was collected from the posterior vena cava of hyg^R mice that were treated with saline, 803 mg/kg and wildtype mice administered 9 mg/kg hygromycin B i.p.
# (§5) Hyg^R mice were treated with the lethal dose of 803 mg/kg hygromycin B and wildtype mice were treated with the lethal dose of 9 mg/kg hygromycin B. As a control, hyg^R mice were also treated with the nontoxic dose of 9 mg/kg. Serum samples taken 48 hrs after treatment were evaluated for the levels of blood urea nitrogen (BUN), aspartate amino transferase (AST) and alanine amino transferase (ALT). Elevated BUN is associated with dehydration and/or renal insufficiency. Elevated activities of ALT and AST are characteristic for liver damage particularly necrosis, cirrhosis and/or hepatitis. Increased AST levels are also characteristic for muscle trauma, myocardial infarction or myositis.
# wildtype mice [3] = assay: Biochemical analysis of serum after hygromycin B; format: in vivo, mouse; conditions: 9 mg/kg single i.p., serum 48 hrs after treatment
# Description: as §4, §5
# hyg^R mice [4] = assay: Histopathological analysis of mouse tissues after Hygromycin B; format: in vivo; conditions: lethal dose 803 mg/kg
# Description: (§6) The organs were prepared as paraffin-embedded glass slides stained with hematoxylin and eosin and evaluated as per the NTP (National Toxicology Program of NIEHS) standards. […] For liver, two cross sections, one of each of the two largest liver lobes were examined. For kidneys, an entire cross section (left longitudinal, right transverse) were evaluated. Lungs had two cross sections (one of each of the two largest lobes). The entire sections on the slides (all fields) were evaluated under blinded conditions for lesions and scored (graded) on a subjective basis compared to control animals. The grades were as follows: 1=minimal, 2=mild, 3=moderate, 4=marked, and 0=no pathological changes. The preparation and evaluation of slides used the NTP criteria and terminology (NIEHS, 1993).
# (§7) Morphological manifestations of hygromycin B tissue specific toxicity in animals treated with lethal doses was assessed by microscopic analysis. Lethal doses of hygromycin B (9 mg/kg) in wildtype animals caused nephrotoxicity typified by tubule eosinophilia, degeneration, and necrosis characterized by cytoplasmic eosinophilia associated with necrosis, loss of tubule cellular and nuclear detail or degeneration, and pyknotic nuclei and fragmentation of cells. These lesions are typical of acute tubular nephrosis. […] The hyg^R mice treated with lethal doses of hygromycin B (803 mg/kg) had liver damage characterized as hepatocellular fatty change, acute inflammation, and hepatocellular necrosis. Liver lesions in the hyg^R transgenic mice were typified by hepatocellular necrosis with nuclear pyknosis and loss of cellular detail, acute infiltration with small foci of neutrophils, and fatty change with hepatocellular intracytoplasmic large distinct clear vacuoles that displaced nuclei. These liver lesions are characteristic of acute liver damage.
# wildtype mice [5] = assay: as above; format: in vivo; conditions: lethal dose 9 mg/kg
# Description: as §6, §7
compound,measurement,setting,value
"CN[C@H]1C[C@@H](N)[C@H](O)[C@@H](O[C@@H]2O[C@H](CO)[C@H](O)[C@@H]3OC4(O[C@H]23)O[C@H]([C@@H](N)CO)[C@H](O)[C@H](O)[C@H]4O)[C@@H]1O (stereo partly drawn) [hygromycin B, Hygromycin-B]",approximate lethal dose,"wildtype C57BL/6J mice; wildtype mice, single i.p.",6 mg/kg
same,"body weight, percentage of the body weight before the experiment",wildtype C57BL/6J mice; 2.7 mg/kg single i.p.,107 ± 3%
same,survival,wildtype C57BL/6J mice; 2.7 mg/kg single i.p.,surv (surv. animals survived the 10 days period)
same,"body weight, percentage of the body weight before the experiment",wildtype C57BL/6J mice; 4 mg/kg single i.p.,104 ± 1%
same,survival,wildtype C57BL/6J mice; 4 mg/kg single i.p.,surv (surv. animals survived the 10 days period)
same,"body weight, percentage of the body weight before the experiment",wildtype C57BL/6J mice; 6 mg/kg single i.p.,83 ± 2%
same,survival,wildtype C57BL/6J mice; 6 mg/kg single i.p.,3 days
same,"body weight, percentage of the body weight before the experiment",wildtype C57BL/6J mice; 9 mg/kg single i.p.,91 ± 4%
same,survival,wildtype C57BL/6J mice; 9 mg/kg single i.p.,3 days
same,"body weight, percentage of the body weight before the experiment",wildtype C57BL/6J mice; 13.5 mg/kg single i.p.,86 ± 6%
same,survival,wildtype C57BL/6J mice; 13.5 mg/kg single i.p.,3 days
same,"body weight, percentage of the body weight before the experiment",wildtype C57BL/6J mice; 20 mg/kg single i.p.,83 ± 2%
same,survival,wildtype C57BL/6J mice; 20 mg/kg single i.p.,3 days
same,"body weight, percentage of the body weight before the experiment",wildtype C57BL/6J mice; 30 mg/kg single i.p.,82 ± 2%
same,survival,wildtype C57BL/6J mice; 30 mg/kg single i.p.,3 days
same,approximate lethal dose,"[1]; hyg^R animals, single i.p.",535 mg/kg
same,increase of approximate lethal dose over the wildtype strain,[1]; hyg^R vs wildtype,89 fold
same,"body weight, percentage of the body weight before the experiment",[1]; 4 mg/kg single i.p.,102 ± 2%
same,survival,[1]; 4 mg/kg single i.p.,surv (surv. animals survived the 10 days period)
same,"body weight, percentage of the body weight before the experiment",[1]; 6 mg/kg single i.p.,107 ± 4%
same,survival,[1]; 6 mg/kg single i.p.,surv (surv. animals survived the 10 days period)
same,"body weight, percentage of the body weight before the experiment",[1]; 9 mg/kg single i.p.,107 ± 3%
same,survival,[1]; 9 mg/kg single i.p.,surv (surv. animals survived the 10 days period)
same,"body weight, percentage of the body weight before the experiment",[1]; 13.5 mg/kg single i.p.,101 ± 2%
same,survival,[1]; 13.5 mg/kg single i.p.,surv (surv. animals survived the 10 days period)
same,"body weight, percentage of the body weight before the experiment",[1]; 20 mg/kg single i.p.,105 ± 1%
same,survival,[1]; 20 mg/kg single i.p.,surv (surv. animals survived the 10 days period)
same,"body weight, percentage of the body weight before the experiment",[1]; 30 mg/kg single i.p.,105 ± 3%
same,survival,[1]; 30 mg/kg single i.p.,surv (surv. animals survived the 10 days period)
same,"body weight, percentage of the body weight before the experiment",[1]; 46 mg/kg single i.p.,107 ± 5%
same,survival,[1]; 46 mg/kg single i.p.,surv (surv. animals survived the 10 days period)
same,"body weight, percentage of the body weight before the experiment",[1]; 69 mg/kg single i.p.,101 ± 3%
same,survival,[1]; 69 mg/kg single i.p.,surv (surv. animals survived the 10 days period)
same,"body weight, percentage of the body weight before the experiment",[1]; 104 mg/kg single i.p.,103 ± 2%
same,survival,[1]; 104 mg/kg single i.p.,surv (surv. animals survived the 10 days period)
same,"body weight, percentage of the body weight before the experiment",[1]; 155 mg/kg single i.p.,102 ± 2%
same,survival,[1]; 155 mg/kg single i.p.,surv (surv. animals survived the 10 days period)
same,"body weight, percentage of the body weight before the experiment",[1]; 233 mg/kg single i.p.,93 ± 5%
same,survival,[1]; 233 mg/kg single i.p.,surv (surv. animals survived the 10 days period)
same,"body weight, percentage of the body weight before the experiment",[1]; 358 mg/kg single i.p.,99 ± 3%
same,survival,[1]; 358 mg/kg single i.p.,surv (surv. animals survived the 10 days period)
same,"body weight, percentage of the body weight before the experiment",[1]; 535 mg/kg single i.p.,83 ± 5%
same,survival,[1]; 535 mg/kg single i.p.,3 days
same,"body weight, percentage of the body weight before the experiment",[1]; 803 mg/kg single i.p.,89 ± 4%
same,survival,[1]; 803 mg/kg single i.p.,3.5 days
same,"body weight, percentage of the body weight before the experiment",[1]; 1205 mg/kg single i.p.,88 ± 2%
same,survival,[1]; 1205 mg/kg single i.p.,2 days
same,"body weight, percentage of the body weight before the experiment",[1]; 1809 mg/kg single i.p.,97 ± 2%
same,survival,[1]; 1809 mg/kg single i.p.,1 days
same,"body weight, percentage of the body weight before the experiment",[1]; 2709 mg/kg single i.p.,98 ± 1%
same,survival,[1]; 2709 mg/kg single i.p.,1 days
same,ALT,hyg^R mice [2]; 9 mg/kg single i.p.,28.7 ± 15.1 u/l
same,AST,hyg^R mice [2]; 9 mg/kg single i.p.,43.0 ± 5.2 u/l
same,BUN,hyg^R mice [2]; 9 mg/kg single i.p.,24.0 ± 4 mg/dL
same,ALT,hyg^R mice [2]; 803 mg/kg single i.p.,108 ± 66.3 u/l
same,AST,hyg^R mice [2]; 803 mg/kg single i.p.,102.0 ± 12.7 u/l
same,BUN,hyg^R mice [2]; 803 mg/kg single i.p.,102 ± 55.1 mg/dL
same,ALT,wildtype mice [3],108 ± 61.5 u/l
same,AST,wildtype mice [3],135 ± 29.7 u/l
same,BUN,wildtype mice [3],97.7 ± 5.5 mg/dL
same,"Kidney Tubule degeneration, lesion severity grade",hyg^R mice [4],0
same,"Kidney Tubule eosinophilia, lesion severity grade",hyg^R mice [4],0
same,"Kidney Tubule necrosis, lesion severity grade",hyg^R mice [4],0
same,"Liver Acute inflamation, lesion severity grade",hyg^R mice [4],0.8 ± 1.0
same,"Liver Fatty change, lesion severity grade",hyg^R mice [4],0.6 ± 0.8
same,"Liver Necrosis, lesion severity grade",hyg^R mice [4],2.2 ± 0.4
same,"Kidney Tubule degeneration, lesion severity grade",wildtype mice [5],2.2 ± 0.4
same,"Kidney Tubule eosinophilia, lesion severity grade",wildtype mice [5],1.0 ± 1.2
same,"Kidney Tubule necrosis, lesion severity grade",wildtype mice [5],1.2 ± 1.1
same,"Liver Acute inflamation, lesion severity grade",wildtype mice [5],0
same,"Liver Fatty change, lesion severity grade",wildtype mice [5],0
same,"Liver Necrosis, lesion severity grade",wildtype mice [5],0
